This is an account of results in patent publication US12605471B2 (The General Hospital Corporation, priority 2013, dated 2026).

In data set [1] the test system is Aβ fibril. The following applies: cited from earlier work.
Data set [2] addresses Aβ (1-40) peptides (Homo sapiens, UniProt P05067). Kind of data set: UV aggregation assay. The format is biochemical. As to the method: Aβ peptide aggregation and the impact of drugs to slow or prevent Aβ aggregation was measured by a UV absorbance assay (Findeis, 1999). Aβ (1-40) peptides, at 50 μM, were mixed with 50 μM drug in assay buffer and the plate was incubated at ambient temperature on a plate reader. The UV absorbance was monitored at 540 nm over a 2-3 h period.
Polymerization of Aβ-monomer peptides into clusters of trimers and tetramers initiates the Aβ aggregation process into protofibrils and then into fibrils that form amyloid plaques.

Data set [3] addresses Aβ peptide (Homo sapiens, UniProt P05067). The data set can be described thus: Aβ aggregation by thioflavin T assay. The format is biochemical. On the procedure:
One of the most routinely used approaches to monitor Aβ polymerization is the thioflavin T binding assay. […] Aβ peptide at 5 μM was mixed with 10 μM thioflavin T with drug at different concentrations.

The conditions of data set [4]: human, oral inhalation, high inspiratory rates; cited from earlier work.
Data set [5] relates to atherosclerotic plaque. The conditions noted are these: mice; cited from earlier work.
The test system of data set [6] is interleukin-6 (IL-6). The following applies: mice, stress-related coronary inflammation; cited from earlier work.
The nature of data set [7]: Brain concentration of PIB analog TS3124. The conditions noted are these: in vivo.
A short description of data set [8]: Biodistribution of F-18 cromolyn in normal mice after intravenous injection. The class given is in vivo. The following applies: for Tissue Distribution, blood / Tissue Distribution, brain / Tissue Distribution, heart / Tissue Distribution, liver / Tissue Distribution, lung: normal mice, i.v. tail vein. On the procedure:
At 5 min, organ activity (DPG) was: heart: 1.09%, blood: 3.3%, lung: 1.90%, liver: 7.69%, and brain: 0.15%. […] The data is provided in Table 1 below and in bar graph format in FIG. 4.

Test in data set [9]: as above
The class given is in vivo. The following applies: i.v. tail vein.

Chain of Aβ (1-40) peptides (P05067 672-711 limits assumed): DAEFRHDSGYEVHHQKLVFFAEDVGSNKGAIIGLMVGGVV
Chain of Aβ peptide (P05067 672-711 limits assumed): as above

Fisetin: in data set [1], the “Effects on Aβ fibril formation” value is given as “Inhibitory”.

With `O=C([O-])c1cc(=O)c2c(OCC(O)COc3cccc4oc(C(=O)[O-])cc(=O)c34)cccc2o1.[Na+].[Na+]` [cromolyn sodium, Disodium cromoglicate], in data set [2] (Aβ 50 μM, equimolar drug, 14 minutes in the absence of drug), the “incubation time required for 50% polymerization” value was determined as 75 min. Further, in [2] (equimolar concentrations with Aβ), the “inhibition of the rate of Aβ polymerization” value worked out at 7 fold. Moreover, the “Aβ aggregation (thioflavin T fluorescence)” value in [3] (Aβ peptide 5 μM, 10 μM thioflavin T, drug at nanomolar concentration, FIG. 6) is “inhibition of Aβ aggregation”. Moreover, in [3] (four separate in vitro assays, nanomolar concentrations), the “Aβ amyloid peptide polymerization into oligomers and higher order aggregates” value is listed as “effectively inhibits”. Moreover, the “inhaled drug-delivered-dose absorbed into the bloodstream” value in [4] is reported as 10-15%. The dinitrophenyl-albumin-induced plaque expansion entry in [5] was “prevented”. Further, in data set [6], the “release of interleukin-6 (IL-6)” value was “partially inhibited”.

Take `O=c1c(O)c(-c2ccc(O)c(O)c2)oc2ccccc12` [3,3′,4′-Trihydroxyflavone]: the “Effects on Aβ fibril formation” value in data set [1] is on record as “Inhibitory”.

For `O=c1c(O)c(-c2cccc(O)c2)oc2cc(O)ccc12` [3,3′,7-Trihydroxyflavone], in data set [1], the “Effects on Aβ fibril formation” value is recorded as “Enhancing”.

For the compound `O=c1cc(-c2ccccc2)oc2cc(O)cc(O)c12` [Chrysin], the “Effects on Aβ fibril formation” value in data set [1] is recorded as “Enhancing”.

Consider `O=c1c(O)c(-c2ccc(O)c(O)c2)oc2cc(O)cc(O)c12` [Quercetin], for which the “Effects on Aβ fibril formation” value in [1] is “Inhibitory”.

For `O=c1cc(-c2ccc(O)c(O)c2)oc2cc(O)cc(O)c12` [Luteolin], the “Effects on Aβ fibril formation” value in data set [1] was “Inhibitory”.

In the case of `O=c1cc(-c2ccc(O)c(O)c2)oc2cc(O)ccc12` [3′,4′,7-Trihydroxyflavone], in data set [1], the “Effects on Aβ fibril formation” value is given as “Inhibitory”.

`CC(F)CNc1ccc(-c2nc3ccc(O)cc3s2)cc1` (stereo not shown) [TS3124] yielded a brain concentration in data set [7] of 4%.

As to `O=C(O)c1cc(=O)c2c(OCC([18F])COc3cccc4oc(C(=O)O)cc(=O)c34)cccc2o1` [F-18 Cromolyn, 5,5′-(2-[18F]fluoropropane-1,3-diyl)bis(oxy)bis(4-oxo-4H-chromene-2-carboxylic acid)], in [8] (mice, intravenous injection, 5, 30 or 60 minute, little or no washout, FIG. 4), the “brain uptake (accumulation)” value is 1%. Besides, the “Tissue Distribution, blood” value in data set [8] (5 min) amounted to 3.31 ± 1.37 % Dose/gram; in data set [8] (5 min, listed as F-18 cromolyn), 3.3 % Dose/gram; in data set [8] (30 min) it was 0.92 ± 0.20 % Dose/gram; in [8] (60 min), 0.44 ± 0.15 % Dose/gram. In addition, the “Tissue Distribution, brain” value was found to be 0.15 ± 0.37 % Dose/gram in [8] (5 min); 0.15 % Dose/gram in [8] (5 min, listed as F-18 cromolyn); 0.04 ± 0.007 % Dose/gram in data set [8] (30 min); 0.03 ± 0.004 % Dose/gram in data set [9] (60 min). Moreover, the “Tissue Distribution, heart” value is reported as 1.09 ± 0.13 % Dose/gram in data set [8] (5 min); 1.09 % Dose/gram in data set [8] (5 min, listed as F-18 cromolyn); 0.32 ± 0.03 % Dose/gram in data set [8] (30 min); 0.18 ± 0.07 % Dose/gram in data set [8] (60 min); 0.18 % Dose/gram in data set [9] (60 min). Further, the “Tissue Distribution, liver” value worked out at 7.69 ± 0.41 % Dose/gram in data set [8] (5 min); 7.69 % Dose/gram in data set [8] (5 min, listed as F-18 cromolyn); 1.76 ± 0.74 % Dose/gram in data set [8] (60 min); 3.11 ± 0.36 % Dose/gram in [9] (30 min). The “Tissue Distribution, lung” value in data set [8] (5 min) is listed as 1.90 ± 1.04 % Dose/gram; in [8] (5 min, listed as F-18 cromolyn), 1.90 % Dose/gram; in [9] (30 min), 0.62 ± 0.19 % Dose/gram; in data set [9] (60 min) it was 0.29 ± 0.21 % Dose/gram.

Consider `O=c1c(O)c(-c2ccc(O)cc2)oc2cc(O)cc(O)c12` [Kaempferol], for which, in data set [1], the “Effects on Aβ fibril formation” value is recorded as “Enhancing”.

`O=c1c(O)c(-c2ccc(O)cc2)oc2cc(O)ccc12` [5-Deoxykaempferol]: the “Effects on Aβ fibril formation” value in [1] is “Enhancing”.

For the compound `O=c1c(O)c(-c2cc(O)c(O)c(O)c2)oc2cc(O)cc(O)c12` [Myricetin], the “Effects on Aβ fibril formation” value in data set [1] is listed as “Inhibitory”.
